Laboratory results reported in patent publication US6890727B2, “Diagnostic assay for Alzheimer's disease: assessment of Aβ abnormalities” (The General Hospital Corporation, priority 1994, dated 2005).

Legend:
[1] = 65Zn2+ binding to immobilized peptide (dot-blot, Scatchard competition analysis); conditions: unlabeled metal ions 50 μM total
Description: ^65Zn^2+ Binding Studies—Dissolved peptides (1.2 nMol, unless other wise stated) were dot-blotted onto polyvinylidene difluoride membrane (0.2-μm pore size; Pierce Chemical Co.), washed twice with chelating buffer (200 μl×100 mM NaCl, 20 mM Tris-HCl, 1 mM EDTA, pH 7.4), then five times with blocking buffer (200 μl×100 mM NaCl, 20 mM Tris-HCl, 1 mM MnCl2, pH 7.4), and then incubated (60 min, 20° C.) with ^65Zn (unless otherwise stated 130,000 cpm, […] ^65ZnCl2 in 200 μl of blocking buffer±competing metal ion chloride). The dot-blot was then washed with blocking buffer (5×200 μl), the dot excised, placed in a test tube, and assayed by γ-counting (11% efficiency). The equilibration volume for stoichiometry estimates was regarded as 6×200 μl. The 214 nm UV absorbance of the unbound flow-through was assayed to determine the total amount of peptide remaining bound onto the membrane. […] To alter the pH, the ^65Zn incubation was carried out in the presence of 100 mM buffer: MOPS (pH 6.5-7.0), MES (pH 5.0-6.0), acetate (pH 3.5-4.5). The dot-blot apparatus was washed with detergent and EDTA (50 mM) then rinsed and siliconized between use.
Aliquots of Aβ were incubated (60 min) with ^65Zn^2+ in the presence of varying concentrations of unlabeled Zn^2+ (0.01-50 μM total). Values shown are means±S.D., n≧3. […] (FIG. 1b) depicts specificity of the Zn^2+ binding site for various metals. Aβ was incubated (60 min) with ^65 Zn^2+ (157 nM, 138,000 cpm) and competing unlabeled metal ions (50 μM total). […] Percent binding of total counts ^65Zn^2+/min added is corrected for the amounts (in nanomoles) of peptides adhering to the membrane. […] 157 nM ^65Zn (138,000 cpm) is used in this experiment to probe immobilized peptide (1.6 nmol).

Aβ = molecular target: T1, Aβ (Homo sapiens, UniProt P05067); assay: SDS Tris/Tricine gel electrophoresis of Aβ incubated with Zn2+; conditions: Zn^2+ 200 μM, 1-24 h, 20° C.
T1 construct: purchased Sigma; Bachem (results also replicated with peptide from the Keck Laboratory, Yale); host or cells: chemical synthesis
Description: To further test whether zinc induces irreversible precipitation of Aβ in the absence of kaolin, Aβ incubated with Zn^2+ (200 μM, 1-24 h, 20° C.) was subjected to SDS Tris/Tricine gel electrophoresis.

trypsin = assay: Trypsin activity, Z-Arg-amido-4-methylcoumarin fluorescent cleavage product; type: biochemical; conditions: Zn^2+ up to 100 μM in TBS
Description: Tryptic Digestion of Aβ-Aβ1-40 (13.9 μg) was incubated with Zn^2+ ([…] in blocking buffer, 1 h, 37° C.) and then digested with trypsin (12 ng, 3 h, 37° C.). The reaction was stopped by adding SDS sample buffer containing phenylmethylsulfonyl fluoride (1 mM), boiling the samples (5 min), and applying the samples to Tris/Tricine gel electrophoresis and transfer. The blot was washed with EDTA, Coomassie-stained, incubated with ^65Zn^2+, individual bands were excised, assayed for ^65Zn^2+ binding, and N-terminal sequenced to confirm the identity of the digestion products. The effects of Zn^2+ (up to 100 μM in TBS) on the activity of trypsin, itself, were assayed by assay of Z-Arg-amido-4-methylcoumarin (Sigma) fluorescent cleavage product and determined to be negligible.

human Aβ1-40 = molecular target: T2, human Aβ1-40 (Homo sapiens, UniProt P05067); assay: Human Aβ1-40 aggregation (0.2μ filtration) after incubation with various metal ions; type: physicochemical; conditions: metal ions 3 μM, equimolar basis, peptide 1.6 μM
T2 construct: made in house; host or cells: chemical synthesis (solid-phase Fmoc)
Excerpt: The atomic number of the metal species is indicated. […] Data points are in duplicate.

T2 sequence (P05067 672-711): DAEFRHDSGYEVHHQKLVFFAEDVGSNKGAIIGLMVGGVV
T1 sequence (P05067 672-711): as above

SMILES: [Zn+2] [Zn^2+, zinc]
- competition of unlabeled metal ion with ^65Zn^2+ for Aβ [1]: capable of competing off the label
- covalent or SDS-resistant polymerization of Aβ (Aβ): does not induce covalent or SDS-resistant polymerization
- effects on the activity of trypsin itself (trypsin): negligible
- induction of aggregation of human Aβ1-40 among metal ions tested (human Aβ1-40): induce significant aggregation
